Results from PubChem BioAssay (NCI).
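Values below derive from 48-hour exposures of cells grown in 96-well plates, with endpoints linearly interpolated between the two concentrations bracketing the appropriate inhibition level. GI50 = concentration required for 50% inhibition of growth. TGI denotes the concentration required for complete inhibition of growth.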

Key:
Experiment in all cases: growth of human tumour cells (NCI), 48 h
786-0 renal = tested on: 786-0 renal
A498 renal = tested on: A498 renal
A549 NSCLC = tested on: A549 NSCLC
ACHN renal = tested on: ACHN renal
BT-549 breast = tested on: BT-549 breast
CAKI-1 renal = tested on: CAKI-1 renal
CCRF-CEM leukemia = tested on: CCRF-CEM leukemia
COLO 205 colon = tested on: COLO 205 colon
DU-145 prostate = tested on: DU-145 prostate
EKVX NSCLC = tested on: EKVX NSCLC
HCC-2998 colon = tested on: HCC-2998 colon
HCT-116 colon = tested on: HCT-116 colon
HCT-15 colon = tested on: HCT-15 colon
HL-60(TB) leukemia = tested on: HL-60(TB) leukemia
HOP-62 NSCLC = tested on: HOP-62 NSCLC
HOP-92 NSCLC = tested on: HOP-92 NSCLC
HS 578T breast = tested on: HS 578T breast
HT29 colon = tested on: HT29 colon
IGROV1 ovarian = tested on: IGROV1 ovarian
K-562 leukemia = tested on: K-562 leukemia
KM12 colon = tested on: KM12 colon
LOX IMVI melanoma = tested on: LOX IMVI melanoma
MALME-3M melanoma = tested on: MALME-3M melanoma
MCF7 breast = tested on: MCF7 breast
MDA-MB-231 breast = tested on: MDA-MB-231 breast
MDA-MB-435 = tested on: MDA-MB-435
MOLT-4 leukemia = tested on: MOLT-4 leukemia
NCI-H226 lung = tested on: NCI-H226 lung
NCI-H23 lung = tested on: NCI-H23 lung
NCI-H460 lung = tested on: NCI-H460 lung
NCI-H522 lung = tested on: NCI-H522 lung
NCI/ADR-RES ovarian = tested on: NCI/ADR-RES ovarian
OVCAR-3 ovarian = tested on: OVCAR-3 ovarian
OVCAR-4 ovarian = tested on: OVCAR-4 ovarian
OVCAR-5 ovarian = tested on: OVCAR-5 ovarian
OVCAR-8 ovarian = tested on: OVCAR-8 ovarian
PC-3 prostate = tested on: PC-3 prostate
RPMI-8226 leukemia = tested on: RPMI-8226 leukemia
RXF 393 renal = tested on: RXF 393 renal
SF-268 CNS = tested on: SF-268 CNS
SF-295 CNS = tested on: SF-295 CNS
SF-539 CNS = tested on: SF-539 CNS
SK-MEL-2 melanoma = tested on: SK-MEL-2 melanoma
SK-MEL-28 melanoma = tested on: SK-MEL-28 melanoma
SK-MEL-5 melanoma = tested on: SK-MEL-5 melanoma
SK-OV-3 ovarian = tested on: SK-OV-3 ovarian
SN12C renal = tested on: SN12C renal
SNB-19 CNS = tested on: SNB-19 CNS
SNB-75 CNS = tested on: SNB-75 CNS
SR leukemia = tested on: SR leukemia
SW-620 colon = tested on: SW-620 colon
T-47D breast = tested on: T-47D breast
TK-10 renal = tested on: TK-10 renal
U251 CNS = tested on: U251 CNS
UACC-62 melanoma = tested on: UACC-62 melanoma
UO-31 renal = tested on: UO-31 renal

Compound `CCOc1ccccc1C(=O)/C=C/c1cc2ccccc2[nH]c1=O` has a GI50 (786-0 renal) of 0.0399 µM, a TGI (786-0 renal) of 1.33 µM and a GI50 (A498 renal) of 0.0147 µM. For the same compound, the TGI (A498 renal) was 0.0813 µM, the GI50 (A549 NSCLC) was 0.0741 µM and the TGI (A549 NSCLC) was 12.4 µM. The GI50 (ACHN renal) was 0.0603 µM, the TGI (ACHN renal) was 1.73 µM and the GI50 (BT-549 breast) was 0.072 µM. It also gave a TGI (BT-549 breast) of 1.41 µM, a GI50 (CAKI-1 renal) of 0.0258 µM and a TGI (CAKI-1 renal) of 1.49 µM. For the same compound, the GI50 (CCRF-CEM leukemia) was 0.029 µM, the TGI (CCRF-CEM leukemia) was > 100 µM and the GI50 (COLO 205 colon) was 0.0371 µM. It also gave a TGI (COLO 205 colon) of 0.643 µM, a GI50 (DU-145 prostate) of 0.038 µM and a TGI (DU-145 prostate) of 0.905 µM. It also gave a GI50 (EKVX NSCLC) of 0.172 µM, a TGI (EKVX NSCLC) of 1.99 µM and a GI50 (HCC-2998 colon) of 0.126 µM. The TGI (HCC-2998 colon) was 0.654 µM, the GI50 (HCT-116 colon) was < 0.0229 µM and the TGI (HCT-116 colon) was 1.17 µM. The GI50 (HCT-15 colon) was 0.0339 µM, the TGI (HCT-15 colon) was 1.22 µM and the GI50 (HL-60(TB) leukemia) was 0.013 µM. For the same compound, the TGI (HL-60(TB) leukemia) was 0.059 µM, the GI50 (HOP-62 NSCLC) was 0.0678 µM and the TGI (HOP-62 NSCLC) was 3.47 µM. The GI50 (HOP-92 NSCLC) was 0.0778 µM, the TGI (HOP-92 NSCLC) was 1.41 µM and the GI50 (HS 578T breast) was 0.0222 µM. The TGI (HS 578T breast) was 0.0933 µM, the GI50 (HT29 colon) was 0.0232 µM and the TGI (HT29 colon) was 2.06 µM. For the same compound, the GI50 (IGROV1 ovarian) was 0.0564 µM, the TGI (IGROV1 ovarian) was 1.86 µM and the GI50 (K-562 leukemia) was < 0.01 µM. The TGI (K-562 leukemia) was > 100 µM, the GI50 (KM12 colon) was 0.0355 µM and the TGI (KM12 colon) was 0.57 µM. The GI50 (LOX IMVI melanoma) was 0.0443 µM, the TGI (LOX IMVI melanoma) was 1.06 µM and the GI50 (MALME-3M melanoma) was 0.0238 µM. It also gave a TGI (MALME-3M melanoma) of 1.88 µM, a GI50 (MCF7 breast) of 0.0356 µM and a TGI (MCF7 breast) of 1.41 µM. For the same compound, the GI50 (MDA-MB-231 breast) was 0.0774 µM, the TGI (MDA-MB-231 breast) was 2.01 µM and the GI50 (MDA-MB-435) was < 0.01 µM. It also gave a TGI (MDA-MB-435) of 0.0139 µM, a GI50 (MOLT-4 leukemia) of 0.0385 µM and a TGI (MOLT-4 leukemia) of 4.43 µM. The GI50 (NCI-H226 lung) was 0.202 µM, the TGI (NCI-H226 lung) was 6.49 µM and the GI50 (NCI-H23 lung) was 0.0729 µM. The TGI (NCI-H23 lung) was 1.77 µM, the GI50 (NCI-H460 lung) was 0.0332 µM and the TGI (NCI-H460 lung) was 0.349 µM. It also gave a GI50 (NCI-H522 lung) of 0.0308 µM, a TGI (NCI-H522 lung) of 1.83 µM and a GI50 (NCI/ADR-RES ovarian) of 0.0234 µM. It also gave a TGI (NCI/ADR-RES ovarian) of 14.4 µM, a GI50 (OVCAR-3 ovarian) of 0.0245 µM and a TGI (OVCAR-3 ovarian) of 0.108 µM. The GI50 (OVCAR-4 ovarian) was 0.144 µM, the TGI (OVCAR-4 ovarian) was 6.24 µM and the GI50 (OVCAR-5 ovarian) was 0.193 µM. For the same compound, the TGI (OVCAR-5 ovarian) was 1.44 µM, the GI50 (OVCAR-8 ovarian) was 0.0507 µM and the TGI (OVCAR-8 ovarian) was 2.08 µM. It also gave a GI50 (PC-3 prostate) of 0.0413 µM, a TGI (PC-3 prostate) of 2.76 µM and a GI50 (RPMI-8226 leukemia) of 0.0284 µM. It also gave a TGI (RPMI-8226 leukemia) of 0.991 µM, a GI50 (RXF 393 renal) of 0.0322 µM and a TGI (RXF 393 renal) of 0.34 µM. The GI50 (SF-268 CNS) was 0.086 µM, the TGI (SF-268 CNS) was 1.85 µM and the GI50 (SF-295 CNS) was 0.0311 µM. For the same compound, the TGI (SF-295 CNS) was 1.28 µM, the GI50 (SF-539 CNS) was 0.0294 µM and the TGI (SF-539 CNS) was 0.129 µM. The GI50 (SK-MEL-2 melanoma) was 0.0657 µM, the TGI (SK-MEL-2 melanoma) was 3.02 µM and the GI50 (SK-MEL-28 melanoma) was 0.324 µM. It also gave a TGI (SK-MEL-28 melanoma) of 2.16 µM, a GI50 (SK-MEL-5 melanoma) of 0.0431 µM and a TGI (SK-MEL-5 melanoma) of 1.31 µM. The GI50 (SK-OV-3 ovarian) was 0.106 µM, the TGI (SK-OV-3 ovarian) was 15.2 µM and the GI50 (SN12C renal) was 0.0961 µM. It also gave a TGI (SN12C renal) of 1.63 µM, a GI50 (SNB-19 CNS) of 0.0459 µM and a TGI (SNB-19 CNS) of 1.34 µM. The GI50 (SNB-75 CNS) was 0.0209 µM, the TGI (SNB-75 CNS) was 0.0766 µM and the GI50 (SR leukemia) was < 0.01 µM. The TGI (SR leukemia) was > 100 µM, the GI50 (SW-620 colon) was 0.0194 µM and the TGI (SW-620 colon) was 1.16 µM. For the same compound, the GI50 (T-47D breast) was 0.271 µM, the TGI (T-47D breast) was 19.6 µM and the GI50 (TK-10 renal) was 0.438 µM. For the same compound, the TGI (TK-10 renal) was 2.93 µM, the GI50 (U251 CNS) was 0.0397 µM and the TGI (U251 CNS) was 1.33 µM. For the same compound, the GI50 (UACC-62 melanoma) was 0.0423 µM, the TGI (UACC-62 melanoma) was 1.93 µM and the GI50 (UO-31 renal) was 0.0611 µM. It also gave a TGI (UO-31 renal) of 1.59 µM.
